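Tested at 5 concentrations; 48 h exposure; 96-well plates; endpoints linearly interpolated, else capped at highest concentration. GI50 = concentration required for 50% inhibition of growth.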 Activity calls are given as the source filed them. Rule as the data show it: active = GI50 up to about 1.1 µM and inactive = higher.
Experiments:
Experiment in all cases: growth of human tumour cells (NCI), 48 h
UO-31 = system: UO-31
SK-MEL-5 = system: SK-MEL-5
MDA-N = system: MDA-N
U-251 = system: U-251
MCF7 = system: MCF7
HCT-116 = system: HCT-116
SF-268 = system: SF-268
RPMI-8226 = system: RPMI-8226
SF-295 = system: SF-295
HOP-62 = system: HOP-62
A498 = system: A498
PC-3 = system: PC-3
UACC-257 = system: UACC-257
RXF 393 = system: RXF 393
MDA-MB-231 = system: MDA-MB-231
SW-620 = system: SW-620
ACHN = system: ACHN
IGROV-1 = system: IGROV-1
BT-549 = system: BT-549
HT-29 = system: HT-29

Compound | GI50 (UO-31) | GI50 (SK-MEL-5) | GI50 (MDA-N) | GI50 (U-251) | GI50 (MCF7) | GI50 (HCT-116) | GI50 (SF-268) | GI50 (RPMI-8226) | GI50 (SF-295) | GI50 (HOP-62) | GI50 (A498) | GI50 (PC-3) | GI50 (UACC-257) | GI50 (RXF 393) | GI50 (MDA-MB-231) | GI50 (SW-620) | GI50 (ACHN) | GI50 (IGROV-1) | GI50 (BT-549) | GI50 (HT-29)
Cc1nnc(SCc2nc(C#N)c(C#N)nc2CSc2nnc(C)s2)s1 | 8.49 µM (inactive) | 15 µM (inactive) | 17.6 µM (inactive) | 18.7 µM (inactive) | 12.3 µM (inactive) | 4.55 µM (inactive) | 17.9 µM (inactive) | 2.93 µM (inactive) | 39.4 µM (inactive) | 19.1 µM (inactive) | 27.4 µM (inactive) | 14.8 µM (inactive) | 13.8 µM (inactive) | 6.76 µM (inactive) | 16.6 µM (inactive) | 3.43 µM (inactive) | 8.53 µM (inactive) | 16.8 µM (inactive) | 16.2 µM (inactive) | 18.2 µM (inactive)
CC(CC(=O)CO[C@H]1[C@H](O)[C@@H](O)[C@@H](O)[C@@H]2NC(=O)c3c(cc4c(c3O)OCO4)[C@H]21)OC1OC(CO)C(O)C(O)C1O (stereo not given in full) | 1.38 µM (inactive) | 0.322 µM (active) | 0.508 µM (active) | 0.239 µM (active) | 0.283 µM (active) | 0.275 µM (active) | 0.367 µM (active) | 0.397 µM (active) | 1.12 µM (active) | 0.366 µM (active) | 1.09 µM (active) | 0.338 µM (active) | 0.594 µM (active) | 0.269 µM (active) | 0.355 µM (active) | 0.374 µM (active) | 0.444 µM (active) | 0.547 µM (active) | 0.495 µM (active) | 0.452 µM (active)
OC1(c2ccccc2)C2CC=CC2C1(c1ccccc1)c1ccccc1 (stereo not given) | 31.1 µM (inactive) | 17.2 µM (inactive) | 25 µM (inactive) | 32.5 µM (inactive) | 26.4 µM (inactive) | 31.2 µM (inactive) | 31 µM (inactive) | 25.6 µM (inactive) | 34 µM (inactive) | 70.3 µM (inactive) | 15.8 µM (inactive) | 42.6 µM (inactive) | 27 µM (inactive) | 16.7 µM (inactive) | 40.6 µM (inactive) | 30.2 µM (inactive) | 43.5 µM (inactive) | 20.1 µM (inactive) | 30.3 µM (inactive) | 18.4 µM (inactive)
O=C1C(=C/C=C2/SC(c3ccccc3)(c3ccccc3)c3ccccc32)C(=O)c2ccccc21 | > 100 µM (inactive) | > 100 µM (inactive) | > 100 µM (inactive) | > 100 µM (inactive) | > 100 µM (inactive) | > 100 µM (inactive) | > 100 µM (inactive) | > 100 µM (inactive) | > 100 µM (inactive) | > 100 µM (inactive) | > 100 µM (inactive) | 80.7 µM (inactive) | > 100 µM (inactive) | > 100 µM (inactive) | > 100 µM (inactive) | > 100 µM (inactive) | > 100 µM (inactive) | > 100 µM (inactive) | > 100 µM (inactive) | > 100 µM (inactive)
Cc1cc(C)c2c(=O)cc(-c3ccccc3)[nH]c2c1 | 9.46 µM (inactive) | 1.3 µM (inactive) | 0.284 µM (active) | 3.25 µM (inactive) | 3.01 µM (inactive) | 0.889 µM (active) | 7.82 µM (inactive) | 2.02 µM (inactive) | 3.63 µM (inactive) | 5.14 µM (inactive) | 1.35 µM (inactive) | 2.06 µM (inactive) | 21.7 µM (inactive) | 1.61 µM (inactive) | 8.22 µM (inactive) | 0.738 µM (active) | 4.65 µM (inactive) | 2.86 µM (inactive) | 7.45 µM (inactive) | 1.17 µM (inactive)
COC(=O)C1=NN2c3ccccc3C(=O)OCCC2C1 (stereo not given) | > 100 µM (inactive) | > 100 µM (inactive) | > 100 µM (inactive) | > 100 µM (inactive) | > 100 µM (inactive) | > 100 µM (inactive) | > 100 µM (inactive) | > 100 µM (inactive) | > 100 µM (inactive) | > 100 µM (inactive) | > 100 µM (inactive) | > 100 µM (inactive) | > 100 µM (inactive) | > 100 µM (inactive) | > 100 µM (inactive) | > 100 µM (inactive) | > 100 µM (inactive) | 71.9 µM (inactive) | > 100 µM (inactive) | > 100 µM (inactive)
Cc1ccc(C)c(/C(=N\N=C(N)N)C2CC2)c1 | 59.8 µM (inactive) | 36.2 µM (inactive) | 23.4 µM (inactive) | 17.4 µM (inactive) | 47.8 µM (inactive) | 26.4 µM (inactive) | 39.5 µM (inactive) | 28.8 µM (inactive) | 42.6 µM (inactive) | 35.8 µM (inactive) | 47.5 µM (inactive) | 48.5 µM (inactive) | 31.6 µM (inactive) | > 100 µM (inactive) | 63.4 µM (inactive) | 33.1 µM (inactive) | 42.7 µM (inactive) | 32.7 µM (inactive) | 25.5 µM (inactive) | 29.3 µM (inactive)
CCCCCCCCCCC/C=C(/C(=O)CCCO[Si](C)(C)C(C)(C)C)C(=O)OC | > 100 µM (inactive) | > 100 µM (inactive) | > 100 µM (inactive) | > 100 µM (inactive) | > 100 µM (inactive) | > 100 µM (inactive) | > 100 µM (inactive) | > 100 µM (inactive) | > 100 µM (inactive) | > 100 µM (inactive) | > 100 µM (inactive) | > 100 µM (inactive) | > 100 µM (inactive) | > 100 µM (inactive) | > 100 µM (inactive) | > 100 µM (inactive) | > 100 µM (inactive) | > 100 µM (inactive) | > 100 µM (inactive) | > 100 µM (inactive)
CC(=O)Nc1cc(Cl)cc(Cl)c1O | > 100 µM (inactive) | > 100 µM (inactive) | > 100 µM (inactive) | > 100 µM (inactive) | > 100 µM (inactive) | > 100 µM (inactive) | > 100 µM (inactive) | > 100 µM (inactive) | > 100 µM (inactive) | > 100 µM (inactive) | > 100 µM (inactive) | > 100 µM (inactive) | > 100 µM (inactive) | > 100 µM (inactive) | > 100 µM (inactive) | > 100 µM (inactive) | > 100 µM (inactive) | > 100 µM (inactive) | > 100 µM (inactive) | > 100 µM (inactive)
COc1ccc2nc3cc(Cl)ccc3c(Nc3ccc(O)c(CN4CCN(C)CC4)c3)c2c1 | 1.9 µM (inactive) | 1.73 µM (inactive) | 1.67 µM (inactive) | 1.67 µM (inactive) | 1.64 µM (inactive) | 1.75 µM (inactive) | 2.28 µM (inactive) | 1.9 µM (inactive) | 1.91 µM (inactive) | 2.06 µM (inactive) | 4.51 µM (inactive) | 1.67 µM (inactive) | 1.86 µM (inactive) | 1.69 µM (inactive) | 1.52 µM (inactive) | 1.99 µM (inactive) | 1.64 µM (inactive) | 1.71 µM (inactive) | 20.3 µM (inactive) | 1.67 µM (inactive)
CCOc1cc2c(cc1O)C=C[C@@H]1[C@@H]2CC[C@]2(C)[C@@H](O)CC[C@@H]12 | 6.08 µM (inactive) | 1.97 µM (inactive) | 0.33 µM (active) | 3.43 µM (inactive) | 3.61 µM (inactive) | 1.11 µM (active) | 9.06 µM (inactive) | 2.52 µM (inactive) | 1.91 µM (inactive) | 3.85 µM (inactive) | 7.11 µM (inactive) | 3.64 µM (inactive) | 12.5 µM (inactive) | 7.29 µM (inactive) | 4.11 µM (inactive) | 1.87 µM (inactive) | 11.6 µM (inactive) | 2.88 µM (inactive) | 13.9 µM (inactive) | 10 µM (inactive)
COC(=O)C1=C(C)N2[C@H](C(=O)O)CS[C@@]2(C)[C@H](C(=O)OC)[C@H]1c1cccc([N+](=O)[O-])c1 | > 100 µM (inactive) | > 100 µM (inactive) | > 100 µM (inactive) | > 100 µM (inactive) | > 100 µM (inactive) | > 100 µM (inactive) | > 100 µM (inactive) | > 100 µM (inactive) | > 100 µM (inactive) | > 100 µM (inactive) | > 100 µM (inactive) | > 100 µM (inactive) | > 100 µM (inactive) | > 100 µM (inactive) | > 100 µM (inactive) | > 100 µM (inactive) | > 100 µM (inactive) | > 100 µM (inactive) | > 100 µM (inactive) | > 100 µM (inactive)
Cc1ccc(S(=O)(=O)N2C[C@@H]3CC[C@]4(CO[Si](C)(C)C(C)(C)C)N[C@@H](c5ccccc5)[C@H]2[C@H]34)cc1 | 33 µM (inactive) | 13.8 µM (inactive) | 29.2 µM (inactive) | 46.5 µM (inactive) | 28.6 µM (inactive) | 12 µM (inactive) | 45.7 µM (inactive) | 7.87 µM (inactive) | 24.9 µM (inactive) | 44.2 µM (inactive) | 48.8 µM (inactive) | 18.2 µM (inactive) | 23.9 µM (inactive) | 14.5 µM (inactive) | 28.1 µM (inactive) | 47.3 µM (inactive) | 37.2 µM (inactive) | 31.3 µM (inactive) | 20.4 µM (inactive) | 13.2 µM (inactive)
COC(=O)Cc1c(-c2[nH]c3ccccc3c2CC(=O)OC)[nH]c2ccccc12 | > 55.3 µM (inactive) | > 52.7 µM (inactive) | > 53.8 µM (inactive) | 51.1 µM (inactive) | > 41.1 µM (inactive) | > 54.2 µM (inactive) | 20.4 µM (inactive) | > 37.7 µM (inactive) | > 57.9 µM (inactive) | 23.2 µM (inactive) | 38.3 µM (inactive) | > 49 µM (inactive) | > 56.1 µM (inactive) | 30.3 µM (inactive) | 38.7 µM (inactive) | > 53.5 µM (inactive) | > 58.9 µM (inactive) | 45.9 µM (inactive) | > 57.1 µM (inactive) | > 59.3 µM (inactive)
